Reference: PubChem BioAssay AID256 (DTP/NCI, 2004)
Where “and” joins values, the source holds several entries; their conditions need not be identical. Identical values can stand only once. Inconclusive results and toxic doses are left out. Rule for the calls: active = survival T/C of 150% or more; inactive = T/C below 125% in these data.

Test system: CD2F1 mice, L1210 leukemia ip, survival T/C
Assay: NCI In Vivo Anticancer Drug Screen. Data for tumor model L1210 Leukemia (intraperitoneal) in CD2F1 (CDF1) mice
Settings: higher = longer survival
How it was run: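 Read-out first: treated-group measurement over vehicle-control measurement, expressed as a ratio. Animals bore a transplanted tumor line and were dosed with compound or vehicle.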

[1] = endpoint: mean survival time, dose: 100.0 mg/kg/injection, schedule: Q01DX009 (ip), vehicle: saline with Tween-80
[2] = endpoint: mean survival time, dose: 200.0 mg/kg/injection, schedule: Q01DX009 (ip), vehicle: saline with Tween-80
[3] = endpoint: mean survival time, dose: 400.0 mg/kg/injection, schedule: Q01DX009 (ip), vehicle: saline with Tween-80
[4] = endpoint: mean survival time, dose: 25.0 mg/kg/injection, schedule: Q04DX002 (ip), vehicle: saline
[5] = endpoint: mean survival time, dose: 50.0 mg/kg/injection, schedule: Q04DX002 (ip), vehicle: saline
[6] = endpoint: mean survival time, dose: 100.0 mg/kg/injection, schedule: Q04DX002 (ip), vehicle: saline
[7] = endpoint: mean survival time, dose: 100.0 mg/kg/injection, schedule: Q01DX009 (ip), vehicle: other
[8] = endpoint: mean survival time, dose: 100.0 mg/kg/injection, schedule: Q04DX003 (ip), vehicle: saline
[9] = endpoint: mean survival time, dose: 200.0 mg/kg/injection, schedule: Q04DX003 (ip), vehicle: saline
[10] = endpoint: mean survival time, dose: 400.0 mg/kg/injection, schedule: Q04DX003 (ip), vehicle: saline

Measured: T/C

COc1ccccc1C1(O)c2ccccc2Sc2cccc(OC)c21 (configuration not stated)
inactive: [1] 86 % of control | [2] 89 % of control | [3] 94 % of control

NC(=S)N/N=C1/CCN2CCCc3cccc1c32
inactive: endpoint: mean survival time, dose: 5.0 mg/kg/injection, schedule: Q01DX001 (ip), vehicle: saline with Tween-80 98 % of control | endpoint: mean survival time, dose: 10.0 mg/kg/injection, schedule: Q01DX001 (ip), vehicle: saline with Tween-80 97 % of control | endpoint: mean survival time, dose: 20.0 mg/kg/injection, schedule: Q01DX001 (ip), vehicle: saline with Tween-80 98 % of control

O=NC1C2C=CC(C2)C1Cl (configuration not stated)
inactive: endpoint: mean survival time, dose: 100.0 mg/kg/injection, schedule: Q01DX001 (ip), vehicle: saline 93 % of control | endpoint: mean survival time, dose: 200.0 mg/kg/injection, schedule: Q01DX001 (ip), vehicle: saline 88 % of control | endpoint: mean survival time, dose: 400.0 mg/kg/injection, schedule: Q01DX001 (ip), vehicle: saline 96 % of control

O=C1CCc2ccsc21
inactive: endpoint: mean survival time, dose: 25.0 mg/kg/injection, schedule: Q04DX002 (ip), vehicle: saline with Tween-80 98 % of control | endpoint: mean survival time, dose: 50.0 mg/kg/injection, schedule: Q04DX002 (ip), vehicle: saline with Tween-80 91 % of control | endpoint: mean survival time, dose: 100.0 mg/kg/injection, schedule: Q04DX002 (ip), vehicle: saline with Tween-80 106 % of control

CC(SC(=N)N)C(=N)N (configuration not stated)
inactive: [4] 97 % of control | [5] 90 % of control | [6] 105 % of control

COc1ccc(OC)c(/C=C/c2cnnc3ccccc23)c1
inactive: endpoint: mean survival time, dose: 18.75 mg/kg/injection, schedule: Q04DX003 (ip), vehicle: Klucel (hydroxypropylcellulose) (HPC) 102 % of control | endpoint: mean survival time, dose: 37.5 mg/kg/injection, schedule: Q04DX003 (ip), vehicle: Klucel (hydroxypropylcellulose) (HPC) 104 % of control | endpoint: mean survival time, dose: 75.0 mg/kg/injection, schedule: Q04DX003 (ip), vehicle: Klucel (hydroxypropylcellulose) (HPC) 114 % of control | endpoint: mean survival time, dose: 150.0 mg/kg/injection, schedule: Q04DX003 (ip), vehicle: Klucel (hydroxypropylcellulose) (HPC) 104 % of control | endpoint: mean survival time, dose: 300.0 mg/kg/injection, schedule: Q04DX003 (ip), vehicle: Klucel (hydroxypropylcellulose) (HPC) 108 % of control

CN(C)C=NC1=NN(C)c2ncnc3c2c1cn3C1OC(CO)C(O)C1O (configuration not stated)
inactive: endpoint: mean survival time, dose: 12.5 mg/kg/injection, schedule: Q01DX009 (ip), vehicle: water 101 % of control | endpoint: mean survival time, dose: 25.0 mg/kg/injection, schedule: Q01DX009 (ip), vehicle: water 95 % of control | endpoint: mean survival time, dose: 50.0 mg/kg/injection, schedule: Q01DX009 (ip), vehicle: water 95 % of control | [7] 108 % of control | endpoint: mean survival time, dose: 100.0 mg/kg/injection, schedule: Q01DX009 (ip), vehicle: water 103 % of control | endpoint: mean survival time, dose: 200.0 mg/kg/injection, schedule: Q01DX009 (ip), vehicle: other 104 % of control | endpoint: mean survival time, dose: 200.0 mg/kg/injection, schedule: Q01DX009 (ip), vehicle: water 110 % of control | endpoint: mean survival time, dose: 400.0 mg/kg/injection, schedule: Q01DX009 (ip), vehicle: other 115 % of control

CN(C=O)c1ccccc1C(=O)O
inactive: endpoint: mean survival time, dose: 100.0 mg/kg/injection, schedule: Q01DX001 (ip), vehicle: saline with Tween-80 98 % of control | [1] 96 % of control | endpoint: mean survival time, dose: 200.0 mg/kg/injection, schedule: Q01DX001 (ip), vehicle: saline with Tween-80 101 % of control | [2] 91 % of control | endpoint: mean survival time, dose: 400.0 mg/kg/injection, schedule: Q01DX001 (ip), vehicle: saline with Tween-80 98 % of control | [3] 97 % of control

Nc1ccc(N=Nc2ccccc2)c(N)c1
inactive: [8] 97 % of control | [9] 90 % of control | [10] 100 % of control

C1=C(c2ccccc2)CC(/C=C/c2ccccc2)(c2ccccc2)C1c1ccccc1 (configuration not stated)
inactive: endpoint: mean survival time, dose: 25.0 mg/kg/injection, schedule: Q01DX009 (ip), vehicle: saline with Tween-80 92 % of control | endpoint: mean survival time, dose: 50.0 mg/kg/injection, schedule: Q01DX009 (ip), vehicle: saline with Tween-80 98 % of control | [1] 90 % of control

CC(C)(C)n1cc(C(=O)c2ccccc2)cc1-c1ccccc1
inactive: endpoint: mean survival time, dose: 100.0 mg/kg/injection, schedule: Q04DX003 (ip), vehicle: saline with Tween-80 91 % of control | endpoint: mean survival time, dose: 200.0 mg/kg/injection, schedule: Q04DX003 (ip), vehicle: saline with Tween-80 92 % of control | endpoint: mean survival time, dose: 400.0 mg/kg/injection, schedule: Q04DX003 (ip), vehicle: saline with Tween-80 86 % of control

CN(C)/C=N/N1CCCCCC1
inactive: endpoint: mean survival time, dose: 25.0 mg/kg/injection, schedule: Q04DX003 (ip), vehicle: saline 103 % of control | endpoint: mean survival time, dose: 50.0 mg/kg/injection, schedule: Q04DX003 (ip), vehicle: saline 97 % of control | [8] 96 % of control

CCN1/C(=C/C=C/C=C\C=C\c2sc3ccc4ccccc4c3[n+]2CC)Sc2ccc3ccccc3c21
inactive: endpoint: mean survival time, dose: 1.25 mg/kg/injection, schedule: Q01DX009 (ip), vehicle: saline with Tween-80 116 % of control and 117 % of control and 112 % of control | endpoint: mean survival time, dose: 2.5 mg/kg/injection, schedule: Q01DX009 (ip), vehicle: saline with Tween-80 116 % of control and 119 % of control and 120 % of control | endpoint: mean survival time, dose: 5.0 mg/kg/injection, schedule: Q01DX009 (ip), vehicle: saline with Tween-80 114 % of control | endpoint: mean survival time, dose: 10.0 mg/kg/injection, schedule: Q01DX009 (ip), vehicle: saline with Tween-80 117 % of control and 118 % of control | endpoint: mean survival time, dose: 20.0 mg/kg/injection, schedule: Q01DX009 (ip), vehicle: saline with Tween-80 114 % of control and 116 % of control | endpoint: mean survival time, dose: 40.0 mg/kg/injection, schedule: Q01DX009 (ip), vehicle: saline with Tween-80 101 % of control and 112 % of control

O=Cc1ccc(O)c2ncccc12
inactive: endpoint: mean survival time, dose: 75.0 mg/kg/injection, schedule: Q01DX001 (ip), vehicle: other 101 % of control | endpoint: mean survival time, dose: 150.0 mg/kg/injection, schedule: Q01DX001 (ip), vehicle: other 95 % of control | endpoint: mean survival time, dose: 300.0 mg/kg/injection, schedule: Q01DX001 (ip), vehicle: other 110 % of control

COC1=C(Br)[C@H](O)[C@](O)(CC#N)C=C1Br
inactive: endpoint: mean survival time, dose: 6.25 mg/kg/injection, schedule: Q01DX009 (ip), vehicle: saline 113 % of control | endpoint: mean survival time, dose: 12.5 mg/kg/injection, schedule: Q01DX009 (ip), vehicle: saline 111 % of control | endpoint: mean survival time, dose: 17.5 mg/kg/injection, schedule: Q01DX009 (ip), vehicle: Klucel (hydroxypropylcellulose) (HPC) 98 % of control | endpoint: mean survival time, dose: 25.0 mg/kg/injection, schedule: Q01DX009 (ip), vehicle: saline 117 % of control | endpoint: mean survival time, dose: 35.0 mg/kg/injection, schedule: Q01DX009 (ip), vehicle: Klucel (hydroxypropylcellulose) (HPC) 100 % of control | endpoint: mean survival time, dose: 70.0 mg/kg/injection, schedule: Q01DX009 (ip), vehicle: Klucel (hydroxypropylcellulose) (HPC) 102 % of control

O=[N+]([O-])c1ccc2ncccc2c1
inactive: endpoint: mean survival time, dose: 25.0 mg/kg/injection, schedule: Q01DX009 (ip), vehicle: other 101 % of control | endpoint: mean survival time, dose: 50.0 mg/kg/injection, schedule: Q01DX009 (ip), vehicle: other 105 % of control | [7] 104 % of control

OC1OCCOC1O (configuration not stated)
inactive: endpoint: mean survival time, dose: 100.0 mg/kg/injection, schedule: Q01DX009 (ip), vehicle: saline 114 % of control | [8] 99 % of control | endpoint: mean survival time, dose: 200.0 mg/kg/injection, schedule: Q01DX009 (ip), vehicle: saline 114 % of control | [9] 99 % of control | endpoint: mean survival time, dose: 400.0 mg/kg/injection, schedule: Q01DX009 (ip), vehicle: saline 121 % of control | [10] 115 % of control

O=NN(CCCl)C(=O)NC1[C@H](O)CCC[C@@H]1O (some centres not stated)
229 % of control and 108 % of control: endpoint: median survival time, dose: 1.25 mg/kg/injection, schedule: Q01DX009 (ip), vehicle: saline
active: endpoint: median survival time, dose: 0.63 mg/kg/injection, schedule: Q01DX009 (ip), vehicle: saline 167 % of control | endpoint: median survival time, dose: 2.5 mg/kg/injection, schedule: Q01DX009 (ip), vehicle: saline 348 % of control and 365 % of control | endpoint: median survival time, dose: 5.0 mg/kg/injection, schedule: Q01DX009 (ip), vehicle: saline 348 % of control and 365 % of control | endpoint: median survival time, dose: 10.0 mg/kg/injection, schedule: Q01DX009 (ip), vehicle: saline 195 % of control and 218 % of control
inactive: endpoint: median survival time, dose: 20.0 mg/kg/injection, schedule: Q01DX009 (ip), vehicle: saline 93 % of control and 101 % of control

O=C(O)C1C2C=CC(O2)C1CO (configuration not stated)
inactive: [4] 103 % of control | [5] 100 % of control | [6] 100 % of control

N/C(=N/N=C/c1ccco1)N[N+](=O)[O-]
inactive: endpoint: mean survival time, dose: 50.0 mg/kg/injection, schedule: Q01DX001 (ip), vehicle: Klucel (hydroxypropylcellulose) (HPC) 97 % of control | endpoint: mean survival time, dose: 100.0 mg/kg/injection, schedule: Q01DX001 (ip), vehicle: Klucel (hydroxypropylcellulose) (HPC) 94 % of control | endpoint: mean survival time, dose: 200.0 mg/kg/injection, schedule: Q01DX001 (ip), vehicle: Klucel (hydroxypropylcellulose) (HPC) 97 % of control
